# Patent publication US12258328B2, “6-membered heteroaryl-containing aminopyridine compounds as EGFR inhibitors” (YUHAN CORPORATION, priority 2021, dated 2025)
# Read-outs that look alike come from different tables or passages of the source.
# Assays:
# [1] = molecular target: EGFR del19/T790M/C797S (Homo sapiens, UniProt P00533, C797S/DEL746-750/T790M); test: Biochemical EGFR kinase assay (Lance Ultra TR-FRET), triple mutant del19/T790M/C797S
# Procedure: (§1) Biochemical EGFR kinase assays were conducted using Lance Ultra time-resolved fluorescence resonance energy transfer (TR-FRET) technology from Perkin-Elmer. Compounds of the invention were initially diluted to 20 mM in 100% DMSO for storage and made into kinase buffer solution to create a compound concentration ranging from 0.003 μM and 10 μM.
# (§2) Each kinase reactions were incubated at room temperature for 1 hour and then stopped by the addition of 4 μL of stop solution (10 mM EDTA). The specific Europium-labeled-anti-phosphopeptide antibody (PerkinElmer, AD0069) diluted in LANCE detection buffer was then added to a final concentration of 2 nM. After 60 minutes incubation at room temperature the LANCE signal was measured on an EnVision Multilabel Reader (Perkin-Elmer). Excitation wavelength was set at 320 nm and emission monitored at 615 nm (donor) and 665 nm (acceptor). The IC50 values were determined using GraphPad prism software (GraphPad Software, Inc., San Diego, CA, USA).
# [2] = molecular target: EGFR L858R/C797S (Homo sapiens, UniProt P00533, C797S/L858R); test: Biochemical EGFR kinase assay (Lance Ultra TR-FRET), double mutant L858R/C797S
# Procedure: as §1, §2
# [3] = molecular target: EGFR wildtype (Homo sapiens, UniProt P00533); test: Biochemical EGFR kinase assay (Lance Ultra TR-FRET), wildtype
# Sequence of EGFR wildtype (P00533 25-1210): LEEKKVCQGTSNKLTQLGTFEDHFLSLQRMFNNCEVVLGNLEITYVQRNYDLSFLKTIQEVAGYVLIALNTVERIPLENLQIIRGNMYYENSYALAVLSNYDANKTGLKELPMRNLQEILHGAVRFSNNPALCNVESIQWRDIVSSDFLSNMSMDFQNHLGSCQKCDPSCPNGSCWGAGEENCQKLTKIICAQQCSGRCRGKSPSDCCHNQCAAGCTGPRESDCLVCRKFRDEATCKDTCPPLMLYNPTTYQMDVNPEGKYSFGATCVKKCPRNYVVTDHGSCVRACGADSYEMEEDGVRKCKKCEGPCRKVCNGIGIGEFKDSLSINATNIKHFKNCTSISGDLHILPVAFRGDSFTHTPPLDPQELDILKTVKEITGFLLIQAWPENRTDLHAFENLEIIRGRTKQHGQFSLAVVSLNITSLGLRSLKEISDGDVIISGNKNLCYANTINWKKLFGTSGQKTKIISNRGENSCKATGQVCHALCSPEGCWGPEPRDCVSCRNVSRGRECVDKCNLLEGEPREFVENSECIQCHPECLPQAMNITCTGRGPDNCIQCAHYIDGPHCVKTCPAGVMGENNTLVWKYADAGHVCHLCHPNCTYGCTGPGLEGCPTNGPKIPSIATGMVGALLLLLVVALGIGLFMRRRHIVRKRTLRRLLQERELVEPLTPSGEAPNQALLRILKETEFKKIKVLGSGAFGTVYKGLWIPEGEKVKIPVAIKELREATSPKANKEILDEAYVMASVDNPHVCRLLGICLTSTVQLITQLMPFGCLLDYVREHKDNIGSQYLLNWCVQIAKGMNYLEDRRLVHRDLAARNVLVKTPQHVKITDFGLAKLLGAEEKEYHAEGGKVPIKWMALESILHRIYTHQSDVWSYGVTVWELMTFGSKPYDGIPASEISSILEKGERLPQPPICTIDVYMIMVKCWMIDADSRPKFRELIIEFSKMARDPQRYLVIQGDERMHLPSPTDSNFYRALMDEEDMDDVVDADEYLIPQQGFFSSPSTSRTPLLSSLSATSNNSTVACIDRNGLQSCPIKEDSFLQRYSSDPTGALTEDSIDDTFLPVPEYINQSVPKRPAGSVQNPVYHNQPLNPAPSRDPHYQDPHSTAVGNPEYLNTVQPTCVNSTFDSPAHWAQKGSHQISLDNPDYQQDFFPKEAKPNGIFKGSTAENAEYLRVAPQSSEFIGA
# Procedure: as §1, §2
# [4] = molecular target: EGFR del19/C797S (Homo sapiens, UniProt P00533, C797S/DEL746-750); test: Biochemical EGFR kinase assay (Lance Ultra TR-FRET), double mutant del19/C797S
# Sequence of EGFR del19/C797S (P00533 with tags, fused parts or gaps DEL746-750/C797S): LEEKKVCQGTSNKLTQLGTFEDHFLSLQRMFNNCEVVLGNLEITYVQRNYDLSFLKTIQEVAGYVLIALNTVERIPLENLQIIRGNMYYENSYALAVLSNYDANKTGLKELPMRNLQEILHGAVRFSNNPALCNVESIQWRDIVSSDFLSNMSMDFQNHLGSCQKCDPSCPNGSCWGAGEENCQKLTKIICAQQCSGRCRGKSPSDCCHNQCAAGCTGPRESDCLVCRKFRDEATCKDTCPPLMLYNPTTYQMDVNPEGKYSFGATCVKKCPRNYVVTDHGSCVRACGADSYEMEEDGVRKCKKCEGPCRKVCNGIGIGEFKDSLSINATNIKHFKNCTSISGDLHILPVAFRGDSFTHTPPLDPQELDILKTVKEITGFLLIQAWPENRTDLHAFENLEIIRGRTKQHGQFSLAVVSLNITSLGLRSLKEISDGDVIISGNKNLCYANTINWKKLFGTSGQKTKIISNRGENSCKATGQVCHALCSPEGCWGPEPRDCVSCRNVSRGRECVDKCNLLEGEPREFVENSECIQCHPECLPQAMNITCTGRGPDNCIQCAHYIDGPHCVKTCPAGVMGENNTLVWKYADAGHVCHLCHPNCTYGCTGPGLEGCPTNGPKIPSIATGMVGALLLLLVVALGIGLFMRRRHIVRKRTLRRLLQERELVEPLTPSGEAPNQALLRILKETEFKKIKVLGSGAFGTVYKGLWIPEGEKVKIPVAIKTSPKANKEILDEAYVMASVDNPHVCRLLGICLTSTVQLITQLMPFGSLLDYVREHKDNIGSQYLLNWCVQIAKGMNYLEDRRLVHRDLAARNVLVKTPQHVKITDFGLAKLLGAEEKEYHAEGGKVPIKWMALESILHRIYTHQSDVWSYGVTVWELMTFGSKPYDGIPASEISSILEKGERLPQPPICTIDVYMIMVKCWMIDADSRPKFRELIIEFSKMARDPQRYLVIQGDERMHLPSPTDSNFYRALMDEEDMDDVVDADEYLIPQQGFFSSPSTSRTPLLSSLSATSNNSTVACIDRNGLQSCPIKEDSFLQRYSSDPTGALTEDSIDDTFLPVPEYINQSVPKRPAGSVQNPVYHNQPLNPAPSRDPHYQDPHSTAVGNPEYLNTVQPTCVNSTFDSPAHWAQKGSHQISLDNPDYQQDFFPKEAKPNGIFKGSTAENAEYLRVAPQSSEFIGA
# Procedure: as §1, §2
# [5] = molecular target: EGFR L858R/T790M/C797S (Homo sapiens, UniProt P00533, C797S/L858R/T790M); test: Biochemical EGFR kinase assay (Lance Ultra TR-FRET), triple mutant L858R/T790M/C797S
# Sequence of EGFR L858R/T790M/C797S (P00533 25-1210 T790M/C797S/L858R): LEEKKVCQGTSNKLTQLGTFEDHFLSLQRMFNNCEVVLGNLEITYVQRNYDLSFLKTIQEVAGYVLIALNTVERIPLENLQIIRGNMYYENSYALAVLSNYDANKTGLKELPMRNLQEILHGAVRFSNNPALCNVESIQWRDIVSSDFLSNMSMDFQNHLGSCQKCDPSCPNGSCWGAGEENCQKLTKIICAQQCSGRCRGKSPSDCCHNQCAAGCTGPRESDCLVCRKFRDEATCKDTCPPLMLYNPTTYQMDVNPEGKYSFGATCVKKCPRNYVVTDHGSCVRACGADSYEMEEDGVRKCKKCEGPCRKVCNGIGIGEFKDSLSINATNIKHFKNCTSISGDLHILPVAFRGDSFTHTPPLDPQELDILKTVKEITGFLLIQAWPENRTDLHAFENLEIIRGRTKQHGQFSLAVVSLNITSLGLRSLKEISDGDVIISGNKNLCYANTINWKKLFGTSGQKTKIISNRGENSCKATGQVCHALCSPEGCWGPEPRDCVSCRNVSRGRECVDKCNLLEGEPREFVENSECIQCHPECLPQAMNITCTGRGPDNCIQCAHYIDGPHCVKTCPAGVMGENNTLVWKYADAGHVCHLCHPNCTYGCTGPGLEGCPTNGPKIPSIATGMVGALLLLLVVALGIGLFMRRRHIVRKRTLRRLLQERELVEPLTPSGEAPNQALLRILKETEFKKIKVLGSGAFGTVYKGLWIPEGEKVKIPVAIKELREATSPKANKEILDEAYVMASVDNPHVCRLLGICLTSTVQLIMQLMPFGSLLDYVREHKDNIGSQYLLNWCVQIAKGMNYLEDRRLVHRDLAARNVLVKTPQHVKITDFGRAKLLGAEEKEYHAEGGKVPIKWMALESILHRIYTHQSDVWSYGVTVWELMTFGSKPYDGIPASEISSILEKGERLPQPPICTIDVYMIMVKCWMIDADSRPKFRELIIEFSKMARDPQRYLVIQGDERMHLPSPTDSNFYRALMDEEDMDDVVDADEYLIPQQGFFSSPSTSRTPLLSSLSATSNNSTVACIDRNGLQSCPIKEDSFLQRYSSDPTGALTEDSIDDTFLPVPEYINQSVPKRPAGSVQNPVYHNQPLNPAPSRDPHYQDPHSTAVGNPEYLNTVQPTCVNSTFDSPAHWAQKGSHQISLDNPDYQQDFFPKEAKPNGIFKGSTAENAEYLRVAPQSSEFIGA
# Procedure: as §1, §2
# [6] = ATP at Km, read-out: IC50 del19/T790M/C797S, Km ATP
# [7] = IC50 del19/T790M/C797S, 100 μM ATP
# [8] = ATP at Km, read-out: IC50 L858R/C797S, Km ATP
# [9] = ATP at Km, read-out: IC50 WT, Km ATP
# [10] = ATP at Km, read-out: IC50 del19/C797S, Km ATP
# [11] = IC50 L858R/T790M/C797S, 100 μM ATP
# [12] = Km ATP, read-out: IC50 del19/T790M/C797S (nM) Km ATP
# [13] = Km ATP, read-out: IC50 L858R/C797S (nM) Km ATP
# [14] = Km ATP, read-out: IC50 WT (nM) Km ATP
# [15] = Km ATP, read-out: IC50 del19/C797S (nM) Km ATP
# [16] = Km ATP, read-out: IC50 L858R/T790M/C797S (nM) Km ATP
# [17] = ATP at Km, read-out: IC50 L858R/T790M/C797S, Km ATP
# [18] = IC50 del19/T790M/C797S (nM) 100 μM ATP, 100 μM ATP
# [19] = IC50 L858R/C797S (nM) 100 μM ATP, 100 μM ATP
# [20] = IC50 WT (nM) 100 μM ATP, 100 μM ATP
# [21] = IC50 L858R/T790M/C797S (nM) 100 μM ATP, 100 μM ATP
# Sequence of EGFR del19/T790M/C797S (P00533 with tags, fused parts or gaps DEL746-750/T790M/C797S): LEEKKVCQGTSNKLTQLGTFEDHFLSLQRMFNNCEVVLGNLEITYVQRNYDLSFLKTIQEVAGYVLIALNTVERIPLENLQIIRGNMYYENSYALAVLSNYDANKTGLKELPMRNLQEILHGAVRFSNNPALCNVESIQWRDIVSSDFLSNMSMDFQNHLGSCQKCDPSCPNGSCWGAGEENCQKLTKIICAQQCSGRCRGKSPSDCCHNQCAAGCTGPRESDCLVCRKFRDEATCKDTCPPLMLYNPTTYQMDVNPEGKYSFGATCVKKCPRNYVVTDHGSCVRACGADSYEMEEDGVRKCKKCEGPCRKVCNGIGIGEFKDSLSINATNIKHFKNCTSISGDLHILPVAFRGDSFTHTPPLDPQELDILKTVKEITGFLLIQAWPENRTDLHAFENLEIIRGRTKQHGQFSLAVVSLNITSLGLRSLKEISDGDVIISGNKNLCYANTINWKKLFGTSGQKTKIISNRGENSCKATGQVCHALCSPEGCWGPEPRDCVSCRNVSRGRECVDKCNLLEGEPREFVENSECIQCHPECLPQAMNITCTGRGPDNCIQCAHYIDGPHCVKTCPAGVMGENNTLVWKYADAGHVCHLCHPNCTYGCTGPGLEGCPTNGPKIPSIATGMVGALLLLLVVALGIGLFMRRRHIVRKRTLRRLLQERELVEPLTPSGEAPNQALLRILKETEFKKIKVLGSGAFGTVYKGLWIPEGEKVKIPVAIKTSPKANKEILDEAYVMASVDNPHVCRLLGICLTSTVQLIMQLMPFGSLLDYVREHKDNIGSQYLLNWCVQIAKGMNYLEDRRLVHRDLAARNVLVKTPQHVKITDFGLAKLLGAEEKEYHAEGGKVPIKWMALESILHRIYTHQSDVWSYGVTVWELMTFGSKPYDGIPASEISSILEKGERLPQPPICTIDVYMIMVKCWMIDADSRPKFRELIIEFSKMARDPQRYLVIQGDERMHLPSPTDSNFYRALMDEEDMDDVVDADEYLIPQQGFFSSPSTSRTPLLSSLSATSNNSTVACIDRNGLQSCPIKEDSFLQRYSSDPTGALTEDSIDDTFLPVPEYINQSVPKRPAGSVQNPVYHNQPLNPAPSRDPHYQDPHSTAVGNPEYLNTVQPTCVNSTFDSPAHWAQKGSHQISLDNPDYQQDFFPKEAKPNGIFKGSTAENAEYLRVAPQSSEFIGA
Structure (SMILES),"IC50 [1, 6] [nM]","IC50 [1, 7] [nM]","IC50 [2, 8] [nM]","IC50 ([2]; IC50 L858R/C797S, 100 μM ATP) [nM]","IC50 [3, 9] [nM]","IC50 ([3]; IC50 WT, 100 μM ATP) [nM]","IC50 [4, 10] [nM]","IC50 [5, 17] [nM]",also measured
"C[C@]1(O)CC[C@@H](Nc2cc(Nc3ccnc(-c4cnn(S(=O)(=O)C5CC5)c4)n3)ncc2-c2cnc(F)cn2)CC1 [Example 185, (1s,4s)-4-((2-((2-(1-(Cyclopropylsulfonyl)-1H-pyrazol-4-yl)pyrimidin-4-yl)amino)-5-(5-fluoropyrazin-2-yl)pyridin-4-yl)amino)-1-methylcyclohexan-1-ol]",2,8.3,3,32.1,111,> 10000,6.7,–,"IC50 ([4]; IC50 del19/C797S, 100 μM ATP): 20.3 nM; IC50 [5, 11]: 1.9 nM"
"C[C@]1(O)CC[C@@H](Nc2cc(Nc3ccnc(-c4cnn(S(=O)(=O)C5CC5)c4)n3)ncc2-c2cc(NC3CC(F)(F)C3)ccn2)CC1 [Example 280, (1s,4s)-4-((6′-((2-(1-(Cyclopropylsulfonyl)-1H-pyrazol-4-yl)pyrimidin-4-yl)amino)-4-((3,3-difluorocyclobutyl)amino)-[2,3′-bipyridin]-4′-yl)amino)-1-methylcyclohexan-1-ol]",–,1,–,20.3,–,> 10000,–,–,"IC50 ([4]; IC50 del19/C797S, 100 μM ATP): 2.7 nM; IC50 [5, 11]: 0.5 nM"
"CN1CCC(Oc2ccc(-c3cnc(Nc4ccnc(-c5cnn(S(=O)(=O)C6CC6)c5)n4)cc3N[C@H]3CC[C@@H](F)CC3)nc2)CC1 [Example 132, N^6′-(2-(1-(Cyclopropylsulfonyl)-1H-pyrazol-4-yl)pyrimidin-4-yl)-N^4′-((1s,4s)-4-fluorocyclohexyl)-5-((1-methylpiperidin-4-yl)oxy)-[2,3′-bipyridine]-4′,6′-diamine]",–,–,–,–,–,–,–,–,"IC50 [1, 12]: 0.4 nM; IC50 [2, 13]: 0.3 nM; IC50 [3, 14]: 0.8 nM; IC50 [4, 15]: 0.4 nM; IC50 [5, 16]: 0.4 nM"
"C[C@]1(O)CC[C@@H](Nc2cc(Nc3ccnc(-c4cnn(S(=O)(=O)C5CC5)c4)n3)ncc2-c2ccc(CCC(F)(F)F)cn2)CC1 [Example 263, (1s,4s)-4-((6′-((2-(1-(Cyclopropylsulfonyl)-1H-pyrazol-4-yl)pyrimidin-4-yl)amino)-5-(3,3,3-trifluoropropyl)-[2,3′-bipyridin]-4′-yl)amino)-1-methylcyclohexan-1-ol]",8,–,0.9,–,14.1,–,23.1,3.4,–
"CN(C)C[C@H]1CC[C@@H](Nc2cc(Nc3ccnc(-c4cnn(S(=O)(=O)C5CC5)c4)n3)ncc2-c2ccc(C(C)(C)O)cn2)CC1 [Example 171, 2-(6′-((2-(1-(Cyclopropylsulfonyl)-1H-pyrazol-4-yl)pyrimidin-4-yl)amino)-4′-(((1s,4s)-4-((dimethylamino)methyl)cyclohexyl)amino)-[2,3′-bipyridin]-5-yl)propan-2-ol]",0.3,0.5,0.2,0.3,0.2,67.9,0.1,0.1,"IC50 ([4]; IC50 del19/C797S, 100 μM ATP): 0.3 nM; IC50 [5, 11]: 0.2 nM"
"O=S(=O)(C1CC1)n1cc(-c2nccc(Nc3cc(N[C@H]4CC[C@@H](CO)CC4)c(-c4cnc(N5CCC(F)(F)CC5)cn4)cn3)n2)cn1 [Example 70, ((1s,4s)-4-((2-((2-(1-(Cyclopropylsulfonyl)-1H-pyrazol-4-yl)pyrimidin-4-yl)amino)-5-(5-(4,4-difluoropiperidin-1-yl)pyrazin-2-yl)pyridin-4-yl)amino)cyclohexyl)methanol]",–,–,–,–,–,–,–,–,"IC50 [1, 18]: 3.9 nM; IC50 [2, 19]: 81.1 nM; IC50 [3, 20]: > 10000 nM; IC50 ([4]; IC50 del19/C797S (nM) 100 μM ATP, 100 μM ATP): 13.1 nM; IC50 [5, 21]: 4.9 nM"
"CC(C)(O)[C@H]1CC[C@@H](Nc2cc(Nc3ccnc(-c4cnn(S(=O)(=O)C5CC5)c4)n3)ncc2-c2ccc(OCCO)cn2)CC1 [Example 207, 2-((1s,4s)-4-((6′-((2-(1-(Cyclopropylsulfonyl)-1H-pyrazol-4-yl)pyrimidin-4-yl)amino)-5-(2-hydroxyethoxy)-[2,3′-bipyridin]-4′-yl)amino)cyclohexyl)propan-2-ol]",1.3,1.6,1,14,3.8,1790,–,0.3,"IC50 [5, 11]: 0.8 nM"
"CC(C)Nc1cc(Nc2ccnc(-c3cnn(S(=O)(=O)C4CC4)c3)n2)ncc1-c1ccc(C(C)(O)C(F)(F)F)cn1 (stereo not drawn) [Example 295, 2-(6′-((2-(1-(Cyclopropylsulfonyl)-1H-pyrazol-4-yl)pyrimidin-4-yl)amino)-4′-(isopropylamino)-[2,3′-bipyridin]-5-yl)-1,1,1-trifluoropropan-2-ol]",10.4,–,26.5,–,44.7,–,49.2,–,–
"C[C@]1(O)CC[C@@H](Nc2cc(Nc3ccnc(-c4cnn(S(=O)(=O)C5CC5)c4)n3)ncc2-c2ccc(S(=O)(=O)N3CCOCC3)cn2)CC1 [Example 182, (1s,4s)-4-((6′-((2-(1-(Cyclopropylsulfonyl)-1H-pyrazol-4-yl)pyrimidin-4-yl)amino)-5-(morpholinosulfonyl)-[2,3′-bipyridin]-4′-yl)amino)-1-methylcyclohexan-1-ol]",2.9,6.4,0.9,3.5,–,> 10000,–,–,"IC50 ([4]; IC50 del19/C797S, 100 μM ATP): 3.7 nM"
"COc1ccc(-c2cnc(Nc3ccnc(-c4cnn(S(=O)(=O)C5CC5)c4)n3)cc2N[C@H]2CC[C@@](C)(O)CC2)nn1 [Example 53, (1s,4s)-4-((2-((2-(1-(Cyclopropylsulfonyl)-1H-pyrazol-4-yl)pyrimidin-4-yl)amino)-5-(6-methoxypyridazin-3-yl)pyridin-4-yl)amino)-1-methylcyclohexan-1-ol]",–,–,–,–,–,–,–,–,"IC50 [1, 18]: 0.4 nM; IC50 [1, 12]: 0.4 nM; IC50 [2, 19]: 1 nM; IC50 [2, 13]: 1 nM; IC50 [3, 20]: > 10000 nM; IC50 [3, 14]: 6.9 nM; IC50 [5, 21]: 0.5 nM; IC50 [5, 16]: 0.1 nM"
"C[C@]1(O)CC[C@@H](Nc2cc(Nc3ccnc(-c4cnn(S(=O)(=O)C5CC5)c4)n3)ncc2-c2cnc(OC(F)F)cn2)CC1 [Example 128, (1s,4s)-4-((2-((2-(1-(Cyclopropylsulfonyl)-1H-pyrazol-4-yl)pyrimidin-4-yl)amino)-5-(5-(difluoromethoxy)pyrazin-2-yl)pyridin-4-yl)amino)-1-methylcyclohexan-1-ol]",–,–,–,–,–,–,–,–,"IC50 [2, 13]: 95.8 nM; IC50 [3, 14]: > 10000 nM; IC50 [4, 15]: 41.2 nM; IC50 [5, 16]: 0.5 nM"
"CC(C)(O)c1ccc(-c2cnc(Nc3ccnc(-c4cnn(S(=O)(=O)C5CC5)c4)n3)cc2NC2CCN(CCF)CC2)nc1 [Example 176, 2-(6′-((2-(1-(Cyclopropylsulfonyl)-1H-pyrazol-4-yl)pyrimidin-4-yl)amino)-4′-((1-(2-fluoroethyl)piperidin-4-yl)amino)-[2,3′-bipyridin]-5-yl)propan-2-ol]",0.2,–,–,–,43.4,–,5.5,0.4,–
"CN1CCC(Oc2ccc(-c3cnc(Nc4nc(-c5cnn(S(=O)(=O)C6CC6)c5)ncc4F)cc3N[C@H]3CC[C@@](C)(O)CC3)nc2)CC1 [Example 300, (1s,4s)-4-((6′-((2-(1-(Cyclopropylsulfonyl)-1H-pyrazol-4-yl)-5-fluoropyrimidin-4-yl)amino)-5-((1-methylpiperidin-4-yl)oxy)-[2,3′-bipyridin]-4′-yl)amino)-1-methylcyclohexan-1-ol]",0.3,–,0.2,–,–,–,0.4,0.1,–
"CN1CCC(Oc2cnc(-c3cnc(Nc4ccnc(-c5cnn(S(=O)(=O)C6CC6)c5)n4)cc3N[C@H]3CC[C@@](C)(O)CC3)cn2)CC1 [Example 145, (1s,4s)-4-((2-((2-(1-(Cyclopropylsulfonyl)-1H-pyrazol-4-yl)pyrimidin-4-yl)amino)-5-(5-((1-methylpiperidin-4-yl)oxy)pyrazin-2-yl)pyridin-4-yl)amino)-1-methylcyclohexan-1-ol]",–,–,–,–,–,–,–,–,"IC50 [1, 12]: 0.1 nM; IC50 [2, 13]: 0.1 nM; IC50 [4, 15]: 0.3 nM; IC50 [5, 16]: 0.03 nM"
